{"source": "patent US7291295B2", "about": "“Method for precipitating finely divided solid particles” (Sociedad Espanola de Carburos Metalicos, S.A., priority 2000, dated 2007)", "assay": "Particle size and size distribution of precipitate by Coulter technique using light dispersion", "type": "physicochemical", "method": "FIGS. 8, 10 and 11 show the distribution of size of the particles using the Coulter technique using light dispersion.\nThe geometrical characteristics of the particles of precipitate (size and distribution of sizes) are measured by the Coulter technique that uses light dispersion with Fourier lenses. Thus, by “particle size” is meant the value of the median of the curve of distribution of particles, in % in volume, and by “distribution of sizes” is meant the value of the standard deviation from the same curve.", "data": [{"molecule": "CC(=O)Oc1ccccc1C(=O)O", "note": "[aspirin]", "values": [{"measurement": "average size of particles of precipitate", "setting": "Example 6, method of the invention, acetone-CO2, 70 bar, 25° C., molar fraction of CO2 0.6", "result": 14, "unit": "μm"}]}, {"molecule": "C1N2CN3CN1CN(C2)C3", "note": "[methenamine]", "values": [{"measurement": "average size of particles of precipitate", "setting": "Example 8, method of the invention, ethanol-CO2, 100 bar, 25° C., molar fraction of CO2 0.7", "result": 8, "unit": "μm"}]}, {"molecule": "CCCCNc1ccc(NCCCC)c2c1C(=O)c1ccccc1C2=O", "note": "[solvent blue 35]", "values": [{"measurement": "average size of particles of precipitate", "setting": "Example 3, method of the invention, acetone-CO2, 60 bar, 25° C., 1,400 ml solution (FIG. 8)", "result": 5, "unit": "μm"}, {"measurement": "average size of particles of precipitate", "setting": "Example 4, GAS process fraction (filter 11), acetone-CO2, 60 bar, 25° C. (FIG. 10)", "result": 70, "unit": "μm"}, {"measurement": "average size of particles of precipitate", "setting": "Example 4, method of the invention (filter 13), acetone-CO2, 60 bar, 25° C., 640 ml solution (FIG. 11)", "result": 4, "unit": "μm"}]}, {"molecule": "CCCCCCCCCCCCCCCCCC(=O)O", "note": "[stearic acid]", "values": [{"measurement": "average size of particles of precipitate", "setting": "Example 7, method of the invention, ethyl acetate-CO2, 100 bar, 25° C., molar fraction of CO2 0.6", "result": 2, "unit": "μm"}]}, {"molecule": "CC(=O)Nc1ccc(O)cc1", "note": "[acetaminophen]", "values": [{"measurement": "average size of particles of precipitate", "setting": "Example 1, method of the invention, ethanol-CO2, 100 bar, 42° C., 1,750 ml solution", "result": 15, "unit": "μm"}, {"measurement": "average size of particles of precipitate", "setting": "Example 2, GAS process fraction (filter 11), ethanol-CO2, 100 bar, 42° C.", "result": 50, "unit": "μm"}, {"measurement": "average size of particles of precipitate", "setting": "Example 2, method of the invention (filter 13), ethanol-CO2, 100 bar, 42° C., 1,600 ml solution", "result": 15, "unit": "μm"}, {"measurement": "average size of particles of precipitate", "setting": "Example 5, GAS process (filter 11), acetone-CO2, 100 bar, 42° C.", "result": 50, "unit": "μm"}]}]}
